Results published in ChEMBL document CHEMBL3885881, “DrugMatrix”.

Species: Rattus norvegicus
Experiment: DrugMatrix - Regimen: Daily Repeat
Type: toxicity, organism-based, Sprague-Dawley
Design: regimen Daily Repeat, gender Male, age 6-8 weeks
Conditions: in vivo, po, route oral GAVAGE, vehicle .5 % CMC; for ABSOLUTE BASOPHIL / ABSOLUTE EOSINOPHIL / ABSOLUTE LYMPHOCYTE / ABSOLUTE MONOCYTE / ABSOLUTE SEGMENTED NEUTROPHIL / BASOPHIL / EOSINOPHIL / ERYTHROCYTE COUNT / HEMATOCRIT / HEMOGLOBIN / LEUKOCYTE COUNT / LYMPHOCYTE / MEAN CORPUSCULAR HEMOGLOBIN / MEAN CORPUSCULAR HEMOGLOBIN CONCENTRATION / MEAN CORPUSCULAR VOLUME / MONOCYTE / NEUTROPHIL / NUCLEATED RED BLOOD CELLS / PLATELET COUNT: tissue Blood; for ALANINE AMINOTRANSFERASE / ALBUMIN / ALKALINE PHOSPHATASE / ASPARTATE AMINOTRANSFERASE / BLOOD UREA NITROGEN / CARBON DIOXIDE / CHLORIDE / CHOLESTEROL / CREATINE PHOSPHOKINASE / CREATININE / GLUCOSE / LACTATE DEHYDROGENASE / LIPASE / PHOSPHORUS / POTASSIUM / SODIUM / TOTAL BILIRUBIN / TOTAL PROTEIN / URIC ACID: tissue Plasma
[1] = 10 mg/kg, 72 h, dose level Low, time 3 day
[2] = 10 mg/kg, 120 h, dose level Low, time 5 day
[3] = 1500 mg/kg, 72 h, dose level High, time 3 day
[4] = 1500 mg/kg, 120 h, dose level High, time 5 day

CCOC(=O)[C@H](CCc1ccccc1)N[C@@H](C)C(=O)N1CCC[C@H]1C(=O)O
ABSOLUTE BASOPHIL [1]: 0 CELLS/uL
ABSOLUTE EOSINOPHIL [1]: 88 CELLS/uL
ABSOLUTE LYMPHOCYTE [1]: 12760.67 CELLS/uL
ABSOLUTE MONOCYTE [1]: 130 CELLS/uL
ABSOLUTE SEGMENTED NEUTROPHIL [1]: 688 CELLS/uL
BASOPHIL [1]: 0%
EOSINOPHIL [1]: 0.67%
ERYTHROCYTE COUNT [1]: 5.43 x10E6/uL
HEMATOCRIT [1]: 32.83%
HEMOGLOBIN [1]: 13.1 G/DL
LEUKOCYTE COUNT [1]: 13.67 x10E3/uL
LYMPHOCYTE [1]: 93.33%
MEAN CORPUSCULAR HEMOGLOBIN [1]: 24.13 pg
MEAN CORPUSCULAR HEMOGLOBIN CONCENTRATION [1]: 39.87 G/DL
MEAN CORPUSCULAR VOLUME [1]: 60.53 fL
MONOCYTE [1]: 1%
NEUTROPHIL [1]: 5%
NUCLEATED RED BLOOD CELLS [1]: 0.33 /100WBC
PLATELET COUNT [1]: 1331.67 x10E3/uL
ALANINE AMINOTRANSFERASE [1]: 46 u/L
ALBUMIN [1]: 4.5 G/DL
ALKALINE PHOSPHATASE [1]: 398 u/L
ASPARTATE AMINOTRANSFERASE [1]: 79 u/L
BLOOD UREA NITROGEN [1]: 17.67 mg/dL
CARBON DIOXIDE [1]: 28.33 mmol/L
CHLORIDE [1]: 98 MEQ/L
CHOLESTEROL [1]: 60.33 mg/dL
CREATINE PHOSPHOKINASE [1]: 181.67 u/L
CREATININE [1]: 0.17 mg/dL
GLUCOSE [1]: 149.33 mg/dL
LACTATE DEHYDROGENASE [1]: 115.33 u/L
LIPASE [1]: 9.67 u/L
PHOSPHORUS [1]: 11.47 mg/dL
POTASSIUM [1]: 6.99 MEQ/L
SODIUM [1]: 142.87 MEQ/L
TOTAL BILIRUBIN [1]: 0.23 mg/dL
TOTAL PROTEIN [1]: 6.13 G/DL
URIC ACID [1]: 1.37 mg/dL
ABSOLUTE BASOPHIL [2]: 0 CELLS/uL
ABSOLUTE EOSINOPHIL [2]: 28.33 CELLS/uL
ABSOLUTE LYMPHOCYTE [2]: 10805 CELLS/uL
ABSOLUTE MONOCYTE [2]: 28.33 CELLS/uL
ABSOLUTE SEGMENTED NEUTROPHIL [2]: 738.33 CELLS/uL
BASOPHIL [2]: 0%
EOSINOPHIL [2]: 0.33%
ERYTHROCYTE COUNT [2]: 5.56 x10E6/uL
HEMATOCRIT [2]: 34.6%
HEMOGLOBIN [2]: 13.37 G/DL
LEUKOCYTE COUNT [2]: 11.6 x10E3/uL
LYMPHOCYTE [2]: 93%
MEAN CORPUSCULAR HEMOGLOBIN [2]: 24.03 pg
MEAN CORPUSCULAR HEMOGLOBIN CONCENTRATION [2]: 38.63 G/DL
MEAN CORPUSCULAR VOLUME [2]: 62.23 fL
MONOCYTE [2]: 0.33%
NEUTROPHIL [2]: 6.33%
NUCLEATED RED BLOOD CELLS [2]: 0 /100WBC
PLATELET COUNT [2]: 1173.33 x10E3/uL
ALANINE AMINOTRANSFERASE [2]: 49.33 u/L
ALBUMIN [2]: 4.27 G/DL
ALKALINE PHOSPHATASE [2]: 405.67 u/L
ASPARTATE AMINOTRANSFERASE [2]: 79.33 u/L
BLOOD UREA NITROGEN [2]: 17.33 mg/dL
CARBON DIOXIDE [2]: 26.33 mmol/L
CHLORIDE [2]: 102.33 MEQ/L
CHOLESTEROL [2]: 51.67 mg/dL
CREATINE PHOSPHOKINASE [2]: 399 u/L
CREATININE [2]: 0.17 mg/dL
GLUCOSE [2]: 175 mg/dL
LACTATE DEHYDROGENASE [2]: 121.67 u/L
LIPASE [2]: 9 u/L
PHOSPHORUS [2]: 11.1 mg/dL
POTASSIUM [2]: 6.79 MEQ/L
SODIUM [2]: 142.87 MEQ/L
TOTAL BILIRUBIN [2]: 0.23 mg/dL
TOTAL PROTEIN [2]: 6.07 G/DL
URIC ACID [2]: 1.2 mg/dL
ABSOLUTE BASOPHIL [3]: 0 CELLS/uL
ABSOLUTE EOSINOPHIL [3]: 63.67 CELLS/uL
ABSOLUTE LYMPHOCYTE [3]: 17047.67 CELLS/uL
ABSOLUTE MONOCYTE [3]: 127.33 CELLS/uL
ABSOLUTE SEGMENTED NEUTROPHIL [3]: 1494.67 CELLS/uL
BASOPHIL [3]: 0%
EOSINOPHIL [3]: 0.33%
ERYTHROCYTE COUNT [3]: 5.46 x10E6/uL
HEMATOCRIT [3]: 34.33%
HEMOGLOBIN [3]: 13.63 G/DL
LEUKOCYTE COUNT [3]: 18.73 x10E3/uL
LYMPHOCYTE [3]: 91%
MEAN CORPUSCULAR HEMOGLOBIN [3]: 24.93 pg
MEAN CORPUSCULAR HEMOGLOBIN CONCENTRATION [3]: 39.7 G/DL
MEAN CORPUSCULAR VOLUME [3]: 62.93 fL
MONOCYTE [3]: 0.67%
NEUTROPHIL [3]: 8%
NUCLEATED RED BLOOD CELLS [3]: 1 /100WBC
PLATELET COUNT [3]: 1237.33 x10E3/uL
ALANINE AMINOTRANSFERASE [3]: 41.33 u/L
ALBUMIN [3]: 4.27 G/DL
ALKALINE PHOSPHATASE [3]: 390.33 u/L
ASPARTATE AMINOTRANSFERASE [3]: 57.33 u/L
BLOOD UREA NITROGEN [3]: 34.67 mg/dL
CARBON DIOXIDE [3]: 32.33 mmol/L
CHLORIDE [3]: 101.67 MEQ/L
CHOLESTEROL [3]: 58.33 mg/dL
CREATINE PHOSPHOKINASE [3]: 191.33 u/L
CREATININE [3]: 0.28 mg/dL
GLUCOSE [3]: 143 mg/dL
LACTATE DEHYDROGENASE [3]: 90.33 u/L
LIPASE [3]: 9 u/L
PHOSPHORUS [3]: 12.8 mg/dL
POTASSIUM [3]: 8.04 MEQ/L
SODIUM [3]: 142.4 MEQ/L
TOTAL BILIRUBIN [3]: 0.27 mg/dL
TOTAL PROTEIN [3]: 6 G/DL
URIC ACID [3]: 1.53 mg/dL
ABSOLUTE BASOPHIL [4]: 0 CELLS/uL
ABSOLUTE EOSINOPHIL [4]: 0 CELLS/uL
ABSOLUTE LYMPHOCYTE [4]: 15341.33 CELLS/uL
ABSOLUTE MONOCYTE [4]: 266 CELLS/uL
ABSOLUTE SEGMENTED NEUTROPHIL [4]: 992.67 CELLS/uL
BASOPHIL [4]: 0%
EOSINOPHIL [4]: 0%
ERYTHROCYTE COUNT [4]: 6.24 x10E6/uL
HEMATOCRIT [4]: 36.97%
HEMOGLOBIN [4]: 15.13 G/DL
LEUKOCYTE COUNT [4]: 16.6 x10E3/uL
LYMPHOCYTE [4]: 92.33%
MEAN CORPUSCULAR HEMOGLOBIN [4]: 24.23 pg
MEAN CORPUSCULAR HEMOGLOBIN CONCENTRATION [4]: 40.93 G/DL
MEAN CORPUSCULAR VOLUME [4]: 59.27 fL
MONOCYTE [4]: 1.67%
NEUTROPHIL [4]: 6%
NUCLEATED RED BLOOD CELLS [4]: 0.33 /100WBC
PLATELET COUNT [4]: 1399.33 x10E3/uL
ALANINE AMINOTRANSFERASE [4]: 39.33 u/L
ALBUMIN [4]: 4.47 G/DL
ALKALINE PHOSPHATASE [4]: 328.67 u/L
ASPARTATE AMINOTRANSFERASE [4]: 73 u/L
BLOOD UREA NITROGEN [4]: 41 mg/dL
CARBON DIOXIDE [4]: 25.33 mmol/L
CHLORIDE [4]: 101.67 MEQ/L
CHOLESTEROL [4]: 48.67 mg/dL
CREATINE PHOSPHOKINASE [4]: 295.67 u/L
CREATININE [4]: 0.37 mg/dL
GLUCOSE [4]: 149 mg/dL
LACTATE DEHYDROGENASE [4]: 268.33 u/L
LIPASE [4]: 9 u/L
PHOSPHORUS [4]: 10.67 mg/dL
POTASSIUM [4]: 9.54 MEQ/L
SODIUM [4]: 140.13 MEQ/L
TOTAL BILIRUBIN [4]: 0.13 mg/dL
URIC ACID [4]: 1.4 mg/dL
